Measured values published in patent publication US10076519B2 (CYTOKINETICS, INC., priority 2010, dated 2018).

Test system: rabbit skeletal myofibrils (fast skeletal myofibrils)
Assay: Activation of fast skeletal myofibrils (PUMA assay, PK/LDH-coupled ATPase at pCa25)
Format: biochemical
Outline: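 Detergent-washed rabbit psoas myofibrils (~90% fast fibres, calcium-regulated) assayed at calcium giving 25% of maximal ATPase rate (pCa25). ADP turnover coupled via pyruvate kinase/lactate dehydrogenase to NADH oxidation, read at 340 nm. Buffer 12 mM PIPES, 2 mM MgCl2, 1 mM DTT, pH 6.8; AC1.4 values derived.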

[1] = AC1.4 determined according to the procedure of Example 39, reported as class symbols
[2] = median AC1.4 class, procedure of Example 39
[3] = median AC1.4 reported as class, procedure of Example 39

Row | Mean AC1.4 [1] | Compound | further results
1 | A (A=<1 uM) | CC(C)(CNc1ccc(-c2ccc3[nH]c(O)nc3c2)nn1)c1ncccc1F [5-(6-{[2-(3-fluoro(2-pyridyl))-2-methylpropyl]amino}pyridazin-3-yl)benzimidazol-2-ol] | –
2 | C (C=10-20 uM) | CC(C)(CNc1ccc(-c2n[nH]c(=O)o2)nn1)c1ccc(F)cc1 [5-(6-{[2-(4-fluorophenyl)-2-methylpropyl]amino}pyridazin-3-yl)-1,3,4-oxadiazolin-2-one] | –
3 | D (D=>20 uM) | CC(C)(CNc1ccc(-c2ccc3[nH]nc(C#N)c3c2)nn1)c1ccc(F)cc1 [5-(6-{[2-(4-fluorophenyl)-2-methylpropyl]amino}pyridazin-3-yl)-1H-indazole-3-carbonitrile] | –
4 | A (A=<1 uM) | CC(C)(CNc1ccc(-c2ccc3[nH]nc(C(N)=O)c3c2)nn1)c1ccc(F)cc1 [5-(6-{[2-(4-fluorophenyl)-2-methylpropyl]amino}pyridazin-3-yl)-1H-indazole-3-carboxamide] | –
5 | B (B=1-10 uM) | CC(C)(CNc1ccc(-c2ccc3[nH]nc(C(=N)N)c3c2)nn1)c1ccc(F)cc1 [5-(6-{[2-(4-fluorophenyl)-2-methylpropyl]amino}pyridazin-3-yl)-1H-indazole-3-carboxamidine] | –
6 | B (B=1-10 uM) | CC(C)(CNc1ccc(-c2cc(C(N)=O)c3[nH]ncc3c2)nn1)c1ccc(F)cc1 [5-(6-{[2-(4-fluorophenyl)-2-methylpropyl]amino}pyridazin-3-yl)-1H-indazole-7-carboxamide] | –
7 | C (C=10-20 uM) | CC(C)(CNc1ccc(-c2ccc(C#N)nc2)nn1)c1ccc(F)cc1 [5-(6-{[2-(4-fluorophenyl)-2-methylpropyl]amino}pyridazin-3-yl)pyridine-2-carbonitrile] | –
8 | B (B=1-10 uM) | CC(C)(CNc1ccc(-c2ccc(C(N)=O)nc2)nn1)c1ccc(F)cc1 [5-(6-{[2-(4-fluorophenyl)-2-methylpropyl]amino}pyridazin-3-yl)pyridine-2-carboxamide] | –
9 | B (B=1-10 uM) | CC(C)(CNc1ccc(-c2cncc(C#N)c2)nn1)c1ccc(F)cc1 [5-(6-{[2-(4-fluorophenyl)-2-methylpropyl]amino}pyridazin-3-yl)pyridine-3-carbonitrile] | –
10 | B (B=1-10 uM) | CC(C)(CNc1ccc(-c2cncc(C(N)=O)c2)nn1)c1ccc(F)cc1 [5-(6-{[2-(4-fluorophenyl)-2-methylpropyl]amino}pyridazin-3-yl)pyridine-3-carboxamide] | –
11 | – | NC(=O)c1cc(-c2ccc(NC3(c4ncccc4F)CCC3)nn2)ccc1O [5-(6-{[(3-fluoro(2-pyridyl))cyclobutyl]amino}pyr-idazin-3-yl)-2-hydroxybenzamide] | Mean AC1.4 [2]: B (B=1-10 uM)
12 | – | NC(=O)c1ccc(-c2ccc(NC3(c4ncccc4F)CCC3)nn2)s1 [5-(6-{[(3-fluoro-2-pyridyl)cyclobutyl]amino}pyr-idazin-3-yl)thiophene-2-carboxamide] | Mean AC1.4 [2]: B (B=1-10 uM)
13 | – | O=C(O)c1ccc(-c2ccc(NC3(c4ncccc4F)CCC3)nn2)s1 [5-(6-{[(3-fluoro-2-pyridyl)cyclobutyl]amino}pyr-idazin-3-yl)thiophene-2-carboxylic acid] | Mean AC1.4 [2]: D (D=>20 uM)
14 | – | NC(=O)c1ccc(-c2ccc(NC3(c4ccc(F)cc4)CCC3)nn2)s1 [5-(6-{[(4-fluorophenyl)cyclobutyl]ami-no}pyridazin-3-yl)thiophene-2-carboxamide] | Mean AC1.4 [2]: B (B=1-10 uM)
15 | – | NC(=O)c1cc(-c2ccc(NC[C@]3(c4ncccc4F)C[C@H](F)C3)nn2)ccc1O [5-[6-({[3-fluoro-1-(3-fluoro(2-pyridyl))cyclobutyl]methyl}ami-no)pyridazin-3-yl]-2-hydroxybenzamide] | Mean AC1.4 [3]: A (A=<1 uM)
16 | – | O=C(O)c1cc(-c2ccc(NC[C@]3(c4ncccc4F)C[C@H](F)C3)nn2)ccc1O [5-[6-({[3-fluoro-1-(3-fluoro(2-pyridyl))cyclobutyl]methyl}ami-no)pyridazin-3-yl]-2-hydroxybenzoic acid] | Mean AC1.4 [3]: B (B=1-10 uM)
